{"source": "patent US20090221505A1", "about": "“COMPOSITIONS AND METHODS RELATED TO SYNCHRONOUS SELECTION OF HOMING PEPTIDES FOR MULTIPLE TISSUES BY IN VIVO PHAGE DISPLAY” (priority 2004, published 2009)", "molecules": {"B1": {"name": "…-phage (phage displaying the … motif, SEQ ID NO 30) (peptide, part only; not given: phage coat protein, part only)", "peptide, part": "CRVASVLPC", "modifications": "not fully specified (bridges); cysteine pairing not given here; also: displayed on filamentous phage (fUSE5)"}}, "key": {"[1]": {"molecular_target": "T1, purified recombinant rabbit PRLR (Oryctolagus cuniculus, UniProt P14787)", "T1 construct": "purchased Protein Laboratories Rehovot, Israel", "T1 sequence (P14787 25-234 limits assumed)": "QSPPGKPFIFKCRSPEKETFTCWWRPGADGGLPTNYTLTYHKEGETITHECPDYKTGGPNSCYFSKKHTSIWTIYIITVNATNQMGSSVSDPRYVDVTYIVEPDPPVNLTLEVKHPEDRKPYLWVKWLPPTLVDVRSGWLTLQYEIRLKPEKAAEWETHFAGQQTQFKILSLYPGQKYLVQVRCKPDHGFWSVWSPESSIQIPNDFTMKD", "assay": "Panning of pancreas-homing phage on immobilized PRLR (BSA control)", "format": "binding", "conditions": "pancreas-homing phage pool (rounds 2 and 3), single round", "procedure": "(§1) Phage-peptide binding to PRLR To identify peptides binding to PRLR, phage clones isolated from the pancreas in rounds 2 and 3 of the screening were individually amplified and pooled. For panning on immobilized PRLR, 10^9 TU of the mixed phage clones were incubated overnight at 4° C. with […] of purified recombinant rabbit PRLR (Protein Laboratories Rehovot, Israel), or BSA control, immobilized on plastic. Unbound phage were extensively washed off with PBS, and then the bound phage were recovered by infecting host K91 E. coli directly on the plate. For panning on cell surface-expressed PRLR, COS-1 cells (ATCC) were transiently transfected with pECE-PRLR as described (Wang et al, 1997) and subjected to biopanning with the amplified pancreas-isolated phage using the BRASIL protocol (Giordano et al, 2001). In each biopanning, bound phage were selected for tetracycline resistance, quantified by infecting host K91 E. coli and sequenced. […] Phage displaying forward (CRVASVLPC) (SEQ ID NO 30), reverse CPLVSAVRC(SEQ ID NO 34), and the alanine point mutants were titered in-parallel with insertless fd-tet phage and tested for binding to COS-1 cells transfected with PRLR by using the BRASIL method (Giordano et al, 2001). COS-1 cells not transfected with PRLR served as a negative control."}, "[2]": {"test_system": "COS-1 cells transfected with PRLR", "assay": "Phage binding to COS-1 cells transfected with PRLR (BRASIL)", "format": "cell-based", "conditions": "for Isolation by biopanning on cell-surface expressed PRLR: pancreas-homing phage pool (rounds 2 and 3), single round; for Isolation by biopanning on cell-surface expressed PRLR / Binding of phage to PRLR-transfected COS-1 cells (in words): BRASIL; for Binding of phage to PRLR-transfected COS-1 cells (in words): FIG. 5A-5B", "procedure": "as §1"}, "[3]": {"test_system": "skeletal muscle", "assay": "Anti-phage immunohistochemistry after iv phage injection, skeletal muscle", "format": "in vivo, mouse", "procedure": "(§2) Immunolocalization Immunofluorescent detection of PRLR expression in COS-1 cells was performed by using anti-PRLR antibody MAI-610 (Affinity Bioreagents) diluted to 20 μg/ml and a secondary FITC-conjugated goat anti-mouse antibody F-0257 (Sigma) at 1 100 dilution. For validating phage binding and internalization into COS-1 cells transfected with PRLR, 10^9 TU of phage displaying PRLR-binding or mutant peptides were subjected to cell binding and internalization as described (Zurita et al, 2004). Immunodetection of cell-associated phage was performed with anti-fd antibody B-7786 (Sigma) at 1 500 dilution and a secondary Cy3-conjugated donkey anti-rabbit antibody 711-165-152 (Jackson) at 3 μg/ml. For phage-peptide immunolocalization in situ, 10^10 TU of iv-injected phage were let circulate for 5 min. Immunohistochemistry on formalin-fixed, paraffin-embedded mouse tissue sections was performed as described (Paqualini et al, 2001, Arap et al, 2002) by using anti-fd antibody B-7786 at 1 1,000 dilution and the LSAB+ peroxidase kit (DAKO)"}, "[4]": {"test_system": "COS-1 cells transfected with PRLR", "assay": "Immunofluorescence of phage binding and internalization into COS-1 cells transfected with PRLR", "format": "cell-based", "conditions": "10^9 TU phage", "procedure": "as §2"}, "[5]": {"test_system": "Pancreas", "assay": "Anti-phage immunohistochemistry after iv phage injection, pancreas", "format": "in vivo, mouse", "procedure": "as §2"}, "[6]": {"molecular_target": "PRLR (prolactin receptor) expressed on the surface of COS-1 cells transfected with pECE-PRLR", "sequence (P05710 20-610)": "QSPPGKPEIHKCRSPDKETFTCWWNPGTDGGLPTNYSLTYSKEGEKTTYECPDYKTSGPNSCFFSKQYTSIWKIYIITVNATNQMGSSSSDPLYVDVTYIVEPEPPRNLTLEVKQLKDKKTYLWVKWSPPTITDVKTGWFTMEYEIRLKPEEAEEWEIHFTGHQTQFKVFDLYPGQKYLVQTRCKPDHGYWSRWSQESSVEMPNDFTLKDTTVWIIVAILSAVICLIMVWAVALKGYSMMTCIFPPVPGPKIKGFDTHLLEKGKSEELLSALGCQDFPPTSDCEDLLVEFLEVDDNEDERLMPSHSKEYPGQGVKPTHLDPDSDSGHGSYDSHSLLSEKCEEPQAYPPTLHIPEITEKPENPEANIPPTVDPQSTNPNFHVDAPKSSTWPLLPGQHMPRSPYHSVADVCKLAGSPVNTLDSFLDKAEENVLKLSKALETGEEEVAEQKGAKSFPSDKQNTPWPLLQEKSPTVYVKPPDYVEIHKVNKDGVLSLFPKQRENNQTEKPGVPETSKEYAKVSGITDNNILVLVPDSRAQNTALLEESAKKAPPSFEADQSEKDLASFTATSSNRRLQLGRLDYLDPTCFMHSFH", "assay": "phage binding to prlR-transfected COS-1 cells"}, "[7]": {"molecular_target": "PRLR (prolactin receptor) expressed on the surface of COS-1 cells transfected with pECE-PRLR", "assay": "phage binding to PRLR-transfected COS-1 cells, BRASIL"}}, "note": "“Also recorded” adds a separate entry of the source. Where no end group is shown, it is not given here.", "data": [{"molecule": "SGATGRA (not fully specified)", "values": [{"measurement": "Isolation by biopanning on in vitro immobilized PRLR", "setting": "[1]", "result": "isolated by biopanning on both in vitro immobilized and cell-surface expressed PRLR"}, {"measurement": "Isolation by biopanning on cell-surface expressed PRLR", "setting": "[2]", "result": "isolated by biopanning on both in vitro immobilized and cell-surface expressed PRLR"}]}, {"molecule": "VFSDYKR (not fully specified)", "values": [{"measurement": "Isolation by biopanning on in vitro immobilized PRLR", "setting": "[1]", "result": "isolated by biopanning on both in vitro immobilized and cell-surface expressed PRLR"}, {"measurement": "Isolation by biopanning on cell-surface expressed PRLR", "setting": "[2]", "result": "isolated by biopanning on both in vitro immobilized and cell-surface expressed PRLR"}]}, {"molecule": "CRVASVLPC [tested as phage clone]", "values": [{"measurement": "Phage localization in skeletal muscle", "setting": "[3]", "result": "but not to skeletal muscle"}, {"measurement": "Phage binding, internalization and co-localization with PRLR-expressing cells", "setting": "[4]", "result": "co-localized; also recorded: bound and internalized specifically by cells expressing PRLR"}, {"measurement": "Binding of phage to PRLR-transfected COS-1 cells (in words)", "setting": "[2]", "result": "Specific binding"}, {"measurement": "Binding of phage to COS-1 cells transfected with prlR relative to background binding by controls", "setting": "[2]; controls: muscle-homing phage or insertless phage", "result": "five"}, {"measurement": "Binding of phage to COS-1 cells transfected with PRLR relative to nonspecific binding to non-transfected COS-1 cells", "setting": "[2]; negative control: non-transfected COS-1 cells, FIG. 5A", "result": 9, "unit": "fold"}, {"measurement": "Phage localization in pancreas", "setting": "[5]", "result": "localized to pancreatic blood vessels and the islets of Langerhans; also recorded: to pancreatic blood vessels and the pancreatic islet cells"}]}, {"molecule": "QVHSSAY (not fully specified)", "values": [{"measurement": "Isolation by biopanning on in vitro immobilized PRLR", "setting": "[1]", "result": "isolated by biopanning on both in vitro immobilized and cell-surface expressed PRLR"}, {"measurement": "Isolation by biopanning on cell-surface expressed PRLR", "setting": "[2]", "result": "isolated by biopanning on both in vitro immobilized and cell-surface expressed PRLR"}]}, {"molecule": "CPLVSAVRC", "values": [{"measurement": "Phage binding, internalization and co-localization with PRLR-expressing cells", "setting": "[4]", "result": "bound and internalized specifically by cells expressing PRLR"}, {"measurement": "Binding of phage to PRLR-transfected COS-1 cells (in words)", "setting": "[2]", "result": "did not significantly decrease its binding to PRLR"}]}, {"molecule": "LPTLSLN (not fully specified)", "values": [{"measurement": "Isolation by biopanning on in vitro immobilized PRLR", "setting": "[1]", "result": "isolated by biopanning on both in vitro immobilized and cell-surface expressed PRLR"}, {"measurement": "Isolation by biopanning on cell-surface expressed PRLR", "setting": "[2]", "result": "isolated by biopanning on both in vitro immobilized and cell-surface expressed PRLR"}]}, {"molecule": "SGPTGRA (not fully specified)", "values": [{"measurement": "Isolation by biopanning on in vitro immobilized PRLR", "setting": "[1]", "result": "isolated by biopanning on both in vitro immobilized and cell-surface expressed PRLR"}, {"measurement": "Isolation by biopanning on cell-surface expressed PRLR", "setting": "[2]", "result": "isolated by biopanning on both in vitro immobilized and cell-surface expressed PRLR"}]}, {"molecule": "CYAIGSFDC (phage-displayed) [control muscle-homing phage clone displaying …]", "values": [{"measurement": "Phage localization in skeletal muscle", "setting": "[3]", "result": "found predominantly in the vasculature of skeletal muscle; also recorded: found predominantly in the vasculature of the skeletal muscle"}, {"measurement": "Phage localization in pancreas", "setting": "[5]", "result": "but not in the pancreas"}]}, {"molecule": "B1", "values": [{"measurement": "fold binding over control phage (muscle-homing or insertless)", "setting": "[6]", "result": 5, "unit": "fold"}, {"measurement": "fold binding over non-transfected COS-1 cells", "setting": "[7]", "result": 9, "unit": "fold"}]}]}
